From patent US9796686B2, “Antibacterial quinazoline-4(3H)-one derivatives” (priority 2014, dated 2017)
In brackets after ≈: the same amount, converted by molar mass. Structures can show the parent of a compound that is named as a salt. Where two headings read alike, the source gives them in different places.

Columns and labels:
Assay in all cases: Bacterial growth minimal inhibitory concentration, microdilution in cation-adjusted Mueller-Hinton Broth (CLSI M7-A7)
Format in all cases: cell-based
E. coli ATCC25922 = conditions: Escherichia coli
Method: (§1) Minimal Inhibitory Concentrations (MICs; mg/L) were determined in cation-adjusted Mueller-Hinton Broth by a microdilution method following the description given in “Methods for Dilution Antimicrobial Susceptibility Tests for Bacteria that Grow Aerobically”, Approved standard, 7th ed., Clinical and Laboratory Standards Institute (CLSI) Document M7-A7, Wayne, Pa., U.S.A. (2006).
(§2) All Example compounds were tested against several Gram-positive and Gram-negative bacteria. […] K. pneumoniae A-651 is a multiply-resistant strain (in particular quinolone-resistant), while E. coli ATCC25922 and P. aeruginosa ATCC27853 are quinolone-sensitive strains.

K. pneumoniae A-651 = conditions: Klebsiella pneumoniae
Method: as §1, §2

P. aeruginosa ATCC27853 = conditions: Pseudomonas aeruginosa
Method: as §1, §2

[1] = ATCC25922, quinolone-sensitive strain, read-out: MIC for E. coli ATCC25922
[2] = A651, multiply-resistant strain (in particular quinolone-resistant), read-out: MIC for K. Pneumoniae A-651
[3] = ATCC27853, quinolone-sensitive strain, read-out: MIC for P. aeruginosa ATCC27853

| Compound | MIC (E. coli ATCC25922; [1]) | MIC (K. pneumoniae A-651; [2]) | MIC (P. aeruginosa ATCC27853; [3]) | MIC (E. coli ATCC25922; ATCC25922, read-out: MIC for E. coli ATCC25922) | MIC (K. pneumoniae A-651; A651, read-out: MIC for K. Pneumoniae A-651) | MIC (P. aeruginosa ATCC27853; ATCC27853, read-out: MIC for P. aeruginosa ATCC27853) |
| --- | --- | --- | --- | --- | --- | --- |
| C[C@@](CCn1cnc2cc(C#Cc3ccc(C4(CO)CC4)cc3)ccc2c1=O)(C(=O)NO)S(C)(=O)=O [Example 16, (R)-N-hydroxy-4-(7-((4-(1-(hydroxymethyl)cyclopropyl)phenyl)ethynyl)-4-oxoquinazolin-3(4H)-yl)-2-methyl-2-(methylsulfonyl)butanamide] | 0.125 mg/L (≈ 0.245 µM) | 0.25 mg/L (≈ 0.491 µM) | 4 mg/L (≈ 7.85 µM) | – | – | – |
| COc1ccc(-c2ccc3c(=O)n(CCC(C)(C(=O)NO)S(C)(=O)=O)cnc3c2)cc1F (racemic) [RE5, (RS)-4-(7-(3-fluoro-4-methoxyphenyl)-4-oxoquinazolin-3(4H)-yl)-N-hydroxy-2-methyl-2-(methylsulfonyl)butanamide] | 0.25 mg/L (≈ 0.539 µM) | 1 mg/L (≈ 2.16 µM) | 16 mg/L (≈ 34.5 µM) | – | – | – |
| COc1ccc(-c2ccc3c(=O)n(CC[C@](C)(C(=O)NO)S(C)(=O)=O)cnc3c2)c(F)c1 (single isomer, unassigned) [Example 1] | ≤ 0.063 mg/L | 0.25 mg/L (≈ 0.539 µM) | 4 mg/L (≈ 8.63 µM) | – | – | – |
| CN(C)c1ccc(-c2ccc3c(=O)n(CCC(C)(C(=O)NO)S(C)(=O)=O)cnc3c2)cc1 (racemic) [RE6, (RS)-4-(7-(4-(dimethylamino)phenyl)-4-oxoquinazolin-3(4H)-yl)-N-hydroxy-2-methyl-2-(methylsulfonyl)butanamide] | 0.125 mg/L (≈ 0.273 µM) | 0.125 mg/L (≈ 0.273 µM) | 16 mg/L (≈ 34.9 µM) | – | – | – |
| C[C@@](CCn1cnc2cc(C#CC#CC34CC(CO)(C3)C4)ccc2c1=O)(C(=O)NO)S(C)(=O)=O [Example 13, (R)-N-hydroxy-4-(7-((3-(hydroxymethyl)bicyclo[1.1.1]pentan-1-yl)buta-1,3-diyn-1-yl)-4-oxoquinazolin-3(4H)-yl)-2-methyl-2-(methylsulfonyl)butanamide] | 0.125 mg/L (≈ 0.259 µM) | 0.25 mg/L (≈ 0.517 µM) | 0.5 mg/L (≈ 1.03 µM) | – | – | – |
| C[C@@](CCn1cnc2cc(C#CC#CC3(CO)CC3)c(F)cc2c1=O)(C(=O)NO)S(C)(=O)=O [Example 12, (R)-4-(6-fluoro-7-((1-(hydroxymethyl)cyclopropyl)buta-1,3-diyn-1-yl)-4-oxoquinazolin-3(4H)-yl)-N-hydroxy-2-methyl-2-(methylsulfonyl)butanamide] | 0.25 mg/L (≈ 0.526 µM) | 0.5 mg/L (≈ 1.05 µM) | 2 mg/L (≈ 4.21 µM) | – | – | – |
| C[C@@](CCn1cnc2cc(C#Cc3ccc(CCO)cc3)ccc2c1=O)(C(=O)NO)S(C)(=O)=O [Example 8, (R)-N-hydroxy-4-(7-((4-(2-hydroxyethyl)phenyl)ethynyl)-4-oxoquinazolin-3(4H)-yl)-2-methyl-2-(methylsulfonyl)butanamide] | 0.125 mg/L (≈ 0.259 µM) | 0.25 mg/L (≈ 0.517 µM) | 4 mg/L (≈ 8.27 µM) | – | – | – |
| C[C@@](CCn1cnc2cc(C#CC#CC3CCC(NC(=O)CN)C3)c(F)cc2c1=O)(C(=O)NO)S(C)(=O)=O.Cl (stereo partly drawn) [Example 27, (R)-4-(7-((3-(2-aminoacetamido)cyclopentyl)buta-1,3-diyn-1-yl)-6-fluoro-4-oxoquinazolin-3(4H)-yl)-N-hydroxy-2-methyl-2-(methylsulfonyl)butanamide hydrochloride] | 1 mg/L | 4 mg/L | 8 mg/L | – | – | – |
| C[C@@](CCn1cnc2cc(C#Cc3ccc([C@@H](O)CO)cc3)ccc2c1=O)(C(=O)NO)S(C)(=O)=O [Example 18, (R)-4-(7-((4((R)-1,2-dihydroxyethyl)phenyl)ethynyl)-4-oxoquinazolin-3(4H)-yl)-N-hydroxy-2-methyl-2-(methylsulfonyl)butanamide] | 0.5 mg/L (≈ 1 µM) | 2 mg/L (≈ 4 µM) | 4 mg/L (≈ 8.01 µM) | – | – | – |
| CC(CCn1cnc2cc(C#Cc3ccc(CN4CCOCC4)cc3)ccc2c1=O)(C(=O)NO)S(C)(=O)=O.O=CO (racemic) [RE12, (RS)-N-hydroxy-2-methyl-2-(methylsulfonyl)-4-(7-((4-(morpholinomethyl)phenyl)ethynyl)-4-oxoquinazolin-3(4H)-yl)butanamide formate] | 0.5 mg/L | 0.5 mg/L | 16 mg/L | – | – | – |
| C[C@@](CCn1cnc2cc(C#CC#CC3(CO)CCC3)c(F)cc2c1=O)(C(=O)NO)S(C)(=O)=O [Example 34, (R)-4-(6-fluoro-7-((1-(hydroxymethyl)cyclobutyl)buta-1,3-diyn-1-yl)-4-oxoquinazolin-3(4H)-yl)-N-hydroxy-2-methyl-2-(methylsulfonyl)butanamide] | 0.25 mg/L (≈ 0.511 µM) | 1 mg/L (≈ 2.04 µM) | 2 mg/L (≈ 4.09 µM) | – | – | – |
| CC(CCn1cnc2cc(-c3ccc(CO)cc3)ccc2c1=O)(C(=O)NO)S(C)(=O)=O (racemic) [RE7, (RS)-N-hydroxy-4-(7-(4-(hydroxymethyl)phenyl)-4-oxoquinazolin-3(4H)-yl)-2-methyl-2-(methylsulfonyl)butanamide] | 2 mg/L (≈ 4.49 µM) | 8 mg/L (≈ 18 µM) | 16 mg/L (≈ 35.9 µM) | – | – | – |
| C[C@@](CCn1cnc2cc(-c3ccccc3)ccc2c1=O)(C(=O)NO)S(C)(=O)=O (single isomer, unassigned) [Example 2] | 0.25 mg/L (≈ 0.602 µM) | ≤ 0.063 mg/L | 8 mg/L (≈ 19.3 µM) | – | – | – |
| CC(C)(N)C#CC#Cc1ccc2c(=O)n(CC[C@](C)(C(=O)NO)S(C)(=O)=O)cnc2c1 [Example 7, (R)-4-(7-(5-amino-5-methylhexa-1,3-diyn-1-yl)-4-oxoquinazolin-3(4H)-yl)-N-hydroxy-2-methyl-2-(methylsulfonyl)butanamide formate] | – | – | – | 1 mg/L | 4 mg/L | 2 mg/L |
| C[C@@](CCn1cnc2cc(C#CC#CC3(CO)CC3)ccc2c1=O)(C(=O)NO)S(C)(=O)=O [Example 6, (R)-N-hydroxy-4-(7-((1-(hydroxymethyl)cyclopropyl)buta-1,3-diyn-1-yl)-4-oxoquinazolin-3(4H)-yl)-2-methyl-2-(methylsulfonyl)butanamide] | 0.25 mg/L (≈ 0.546 µM) | 1 mg/L (≈ 2.19 µM) | 2 mg/L (≈ 4.37 µM) | – | – | – |

Second part, led by results:

| MIC (E. coli ATCC25922; [1]) | MIC (K. pneumoniae A-651; [2]) | MIC (P. aeruginosa ATCC27853; [3]) | Compound | MIC (E. coli ATCC25922; ATCC25922, read-out: MIC for E. coli ATCC25922) | MIC (K. pneumoniae A-651; A651, read-out: MIC for K. Pneumoniae A-651) | MIC (P. aeruginosa ATCC27853; ATCC27853, read-out: MIC for P. aeruginosa ATCC27853) |
| --- | --- | --- | --- | --- | --- | --- |
| ≤ 0.063 mg/L | 0.25 mg/L (≈ 0.546 µM) | 1 mg/L (≈ 2.19 µM) | C[C@@](CCn1cnc2cc(C#CC#C[C@@H]3C[C@H]3CO)ccc2c1=O)(C(=O)NO)S(C)(=O)=O [Example 5, (R)-N-hydroxy-4-(7-(((1R,2R)-2-(hydroxymethyl)cyclopropyl)buta-1,3-diyn-1-yl)-4-oxoquinazolin-3(4H)-yl)-2-methyl-2-(methylsulfonyl)butanamide] | – | – | – |
| 0.125 mg/L (≈ 0.265 µM) | 0.5 mg/L (≈ 1.06 µM) | 1 mg/L (≈ 2.12 µM) | C[C@@]1(C#CC#Cc2ccc3c(=O)n(CC[C@](C)(C(=O)NO)S(C)(=O)=O)cnc3c2)C[C@H]1CO [Example 20, (R)-N-hydroxy-4-(7-(((1R,2R)-2-(hydroxymethyl)-1-methylcyclopropyl)buta-1,3-diyn-1-yl)-4-oxoquinazolin-3(4H)-yl)-2-methyl-2-(methylsulfonyl)butanamide] | – | – | – |
| 1 mg/L (≈ 2.05 µM) | 1 mg/L (≈ 2.05 µM) | 1 mg/L (≈ 2.05 µM) | C[C@@](CCn1cnc2cc(C#CC#C[C@@H]3C[C@H]3[C@H](O)CO)ccc2c1=O)(C(=O)NO)S(C)(=O)=O [Example 26, (R)-4-(7-(((1R,2R)-2-((S)-1,2-dihydroxyethyl)cyclopropyl)buta-1,3-diyn-1-yl)-4-oxoquinazolin-3(4H)-yl)-N-hydroxy-2-methyl-2-(methylsulfonyl)butanamide] | – | – | – |
| ≤ 0.063 mg/L | 0.125 mg/L (≈ 0.265 µM) | 0.5 mg/L (≈ 1.06 µM) | C[C@@]1(CO)C[C@H]1C#CC#Cc1ccc2c(=O)n(CC[C@](C)(C(=O)NO)S(C)(=O)=O)cnc2c1 [Example 17, (R)-N-hydroxy-4-(7-(((1S,2R)-2-(hydroxymethyl)-2-methylcyclopropyl)buta-1,3-diyn-1-yl)-4-oxoquinazolin-3(4H)-yl)-2-methyl-2-(methylsulfonyl)butanamide] | – | – | – |
| 0.25 mg/L (≈ 0.526 µM) | 0.5 mg/L (≈ 1.05 µM) | 4 mg/L (≈ 8.41 µM) | C[C@@](CCn1cnc2c(F)c(C#CC#C[C@@H]3C[C@H]3CO)ccc2c1=O)(C(=O)NO)S(C)(=O)=O [Example 21, (R)-4-(8-fluoro-7-(((1R,2R)-2-(hydroxymethyl)cyclopropyl)buta-1,3-diyn-1-yl)-4-oxoquinazolin-3(4H)-yl)-N-hydroxy-2-methyl-2-(methylsulfonyl)butanamide] | – | – | – |
| ≤ 0.063 mg/L | 0.25 mg/L (≈ 0.526 µM) | 1 mg/L (≈ 2.1 µM) | C[C@@](CCn1cnc2cc(C#CC#C[C@@H]3C[C@H]3CO)c(F)cc2c1=O)(C(=O)NO)S(C)(=O)=O [Example 11, (R)-4-(6-fluoro-7-(((1R,2R)-2-(hydroxymethyl)cyclopropyl)buta-1,3-diyn-1-yl)-4-oxoquinazolin-3(4H)-yl)-N-hydroxy-2-methyl-2-(methylsulfonyl)butanamide] | – | – | – |
| 0.5 mg/L (≈ 1.05 µM) | 0.5 mg/L (≈ 1.05 µM) | 4 mg/L (≈ 8.41 µM) | C[C@@](CCn1cnc2c(F)c(C#CC#C[C@H]3C[C@@H]3CO)ccc2c1=O)(C(=O)NO)S(C)(=O)=O [Example 23, (R)-4-(8-fluoro-7-(((1S,2S)-2-(hydroxymethyl)cyclopropyl)buta-1,3-diyn-1-yl)-4-oxoquinazolin-3(4H)-yl)-N-hydroxy-2-methyl-2-(methylsulfonyl)butanamide] | – | – | – |
| 8 mg/L (≈ 17.9 µM) | 8 mg/L (≈ 17.9 µM) | 4 mg/L (≈ 8.94 µM) | C[C@@](CCn1cnc2cc(C#CC#C[C@@H](O)CO)ccc2c1=O)(C(=O)NO)S(C)(=O)=O [Example 10, (R)-4-(7-((R)-5,6-dihydroxyhexa-1,3-diyn-1-yl)-4-oxoquinazolin-3(4H)-yl)-N-hydroxy-2-methyl-2-(methylsulfonyl)butanamide] | – | – | – |
| 0.25 mg/L (≈ 0.53 µM) | 0.25 mg/L (≈ 0.53 µM) | 1 mg/L (≈ 2.12 µM) | C[C@]1(CO)C[C@@H]1C#CC#Cc1ccc2c(=O)n(CC[C@](C)(C(=O)NO)S(C)(=O)=O)cnc2c1 [Example 24, (R)-N-hydroxy-4-(7-(((1R,2S)-2-(hydroxymethyl)-2-methylcyclopropyl)buta-1,3-diyn-1-yl)-4-oxoquinazolin-3(4H)-yl)-2-methyl-2-(methylsulfonyl)butanamide] | – | – | – |
